The nature of series [1]: Visual observation of wettability by stereomicroscope. To be noted: one drop of distillate water on 0.1 mg powder. Format: physicochemical. On the procedure:
Wettability of nanostructured Sildenafil Citrate particles was investigated in distilled water and was visualized by stereomicroscope equipped with CCD camera. 0.1 mg reference and nanostructure Sildenafil powder was placed to the slide and then one drop of distillate water was added to the powder.

Series [2] can be described thus: Particle size concluded from X-ray diffractograms. The settings on record: XRD. Format: physicochemical. From the text: The wide reflection between 15 and 20 20 values indicates the amorphous structure of the Carbopol 971. The characteristic reflections of the crystalline Sildenafil citrate can be found on the XRD diffractogram of nanosized Sildenafil citrate, but with lower intensity.

The conditions of series [3]: cited from earlier work.

As for `CCCc1nn(C)c2c(=O)[nH]c(-c3cc(S(=O)(=O)N4CCN(C)CC4)ccc3OCC)nc12.O=C(O)CC(O)(CC(=O)O)C(=O)O` [Sildenafil citrate, 1-[[3-(6,7-dihydro-1-methyl-7-oxo-3-propyl-1H-pyrazolo[4,3-d]pyrimidin-5-yl)-4-ethoxyphenyl]sulfonyl]-4-methylpiperazine citrate], the wettability result in series [1] is “stayed in their aggregated state”. The “particle size from diffractograms” value in series [2] is reported as 1-2 μm. Further, the absolute bioavailability in series [3] (oral) was 41%. In addition, the “dose dependence of AUC and cmax” value in series [3] (single doses from 1.25 to 200 mg) is recorded as “dose-proportional”.
